Drawing on patent US12622917B2, “High-activity Wnt pathway inhibitor compound” (ADLAI NORTYE BIOPHARMA CO., LTD., priority 2020, dated 2026), this text covers IC50 for 18 compounds.

The subject of assay [1] is Colo205-LUC-TCF/LEF M1 reporter cell line (Wnt pathway). In words: Colo205-LUC-TCF/LEF M1 reporter gene (luciferase) inhibition. It is filed as cell-based. Particulars: 4 hours incubation, luciferase readout. The source says:
Colo205 cell line (Cell Bank of Chinese Academy of Sciences, Cat #TCHu102) was purchased from the Cell Bank of Chinese Academy of Sciences. After expansion and subculture, in the exponential growth phase of the cells, transfection with lipo3000 liposome transfection with TCF/LEF transcription factors Driven luciferase reporter plasmid (Promega). […] The plasmid carries a resistance gene for resistance screening. Transfection was carried out in 10 cm culture dishes using conventional complete medium without resistance. After 2 days, the medium with resistance was replaced, and the culture was continued. After that, the resistant medium was replaced every 2 days, and the suspended cells were discarded. The original medium was centrifuged to remove cells and debris and retained as an adaptive medium. When the cells covered the culture dish, the cells were digested, counted, and passaged in a 96-well plate, so that the average number of cells contained in each well was 1.5/well, and the adaptive medium was used for passage. The rest of the cells were frozen. After subculture, culture for 4 hours to allow the cells to adhere to the wall, and then observe the number of cells in each well under a microscope. Wells with only 1 cell per well were labeled as monoclonal wells. Afterwards, normal culture was performed, and the culture medium was replaced every 2 days, and observed. There are holes where the monoclonal cells continue to grow in the early stage, and they are labeled twice, and can be replaced with normal resistant medium. When a monoclonal well was overgrown with a 96-well plate, it is digested and passaged to a 24-well culture plate. After the 24-well plate is overgrown, it is passaged to a 96-well plate and a 6-well plate. The cells in a 96-well plate are at least 6 wells, of which 3 wells were added with known Wnt inhibitors, and the other 3 wells were not treated. After 24 hours, the cells in the 96-well plate were added with a fluorescence detection reagent to detect the fluorescence intensity. Cell lines with fluorescent expression when not treated and decreased fluorescent light after inhibition were selected and further cultured. The Colo205-LUC-TCF/LEF-M1 cell line is one of the cell lines screened above. Its growth curve, cell shape, and cell growth state are similar to those of the original Colo205 cells, and the ratio of the fluorescent signals of the inhibitor-treated and untreated cells is the largest among all cell lines, and the ratio can reach 4-5 times when inhibited at 4 hours, which was completely suitable for the screening of Wnt inhibitors in the later stage.
The Colo205-LUC-TCF/LEF M1 cell line is a reporter tool cell stably transfected with the pGL4.49-LUC2-TCF/LEF vector. The β-catenin Wnt pathway is continuously activated. After adding the inhibitor, the Wnt pathway is inhibited. The expression of firefly luciferase regulated by the[…] cis-element decreased, and after adding the detection substrate, the detected light signal decreased accordingly, so as to detect the inhibitory effect of the compound.
To a 96-well cell culture plate, add 100 uL of the compound with a maximum concentration of 20 uM to each well, and make a 3-fold serial dilution of the compound concentration. Then 10,000 colo205 cells stably transfected with the reporter gene and 100 uL medium were inoculated into each well, and corresponding positive and negative control wells were made at the same time. Put the cells in a 5% CO2 incubator and incubate at 37° C. for 4 hours. After 4 hours, remove the culture medium, add 100 uL of reagent (Promega) containing the corresponding firefly luciferase substrate to each well, and measure the activity of luciferase reporter gene. Luminescence intensity was read with SpectraMax in full wavelength mode. […]
In general terms: Reporter assays use an easily measured gene product as a stand-in for the process of interest.

For assay [2], the system named is NCI-H929. The assay is described as follows: Proliferation inhibition, NCI-H929 cell line. In kind it is cell-based, human. Particulars: Homo sapiens; NCI-H929 cells, 96 hours culture, cell viability detection; read-out: Antiproliferative IC50 NCI-H929. The source says: (§1) The cell lines used in the test are NCI-H929 and HepG2 cell lines whose Wnt pathway is continuously activated and whose proliferation is Wnt pathway-dependent; the inhibitory effect of the compound of the present invention on Wnt-dependent proliferation is judged.
(§2) Treat the NCI-H929 and HepG2 cell lines cultured in their respective mediums in the logarithmic growth phase, collect the cells and prepare a uniform cell suspension of known concentration, and then add the cell suspension to the 96-well cell culture plate solution so that each well contains 4000 cells. Put it into a […] incubator and incubate at 37° C. for 20-24 h. On the second day, the fully dissolved, 3-fold serially diluted compound was added to each cell culture well, so that the final maximum concentration in the cell culture well was 20 uM, and the culture was continued for 96 hours. In this test, Promega's cell viability detection test is used for detection. The more the cells proliferate, the stronger the final signal intensity will be. The detection instrument is SpectraMax, full wavelength mode. The wells only added with DMSO were used as positive control wells, and the wells that were not inoculated with cells were used as negative control wells. […] The IC50 value of cell proliferation inhibition was used to evaluate the inhibitory effect of the compound on the Wnt pathway and the toxic effect on normal cells (Table 3).

Assay [3] deals with HepG2. The assay is described as follows: Proliferation inhibition, HepG2 cell line. It is filed as cell-based. As to conditions: Homo sapiens; HepG2 cells, 96 hours culture, cell viability detection; read-out: Antiproliferative IC50 HepG2.
Text: as §1, §2

Assay [4] relates to RKO. The assay is described as follows: Proliferation inhibition, non-Wnt mutant control cell line RKO. In kind it is cell-based. As to conditions: Homo sapiens, Wnt-independent control cell line, 96 hours, read-out: Antiproliferative IC50 RKO. The source says: (§3) The cell lines used in the experiment are Colo205 and DU4475 cell lines whose Wnt pathway is continuously activated and whose proliferation is Wnt pathway-dependent; while the BELA and RKO cell lines, whose Wnt pathway is not activated under normal circumstances and the proliferation is independent of Wnt pathway, as control cell lines. It is Judged that the inhibitory effect of the compound of the present invention on Wnt-dependent proliferation is not caused by other non-specific toxicity.
(§4) Treat the Colo205, Du4475, HELA and RKO cell lines cultured in their respective mediums in the logarithmic growth phase, collect the cells and prepare a uniform cell suspension of known concentration, and then add it to the 96-well cell culture plate Cell suspension, so that each well contains 1000 cells. Put it into a 5% CO2 incubator and incubate at 37° C. for 20-24 h. On the second day, the fully dissolved, 3-fold serially diluted compound was added to each cell culture well, so that the final maximum concentration in the cell culture well was 20 uM, and the culture was continued for 96 hours. In this test, Promega's cell viability detection test is used for detection. The more the cells proliferate, the stronger the final signal intensity will be. The detection instrument is SpectraMax, full wavelength mode. The wells only added with DMSO were used as positive control wells, and the wells that were not inoculated with cells were used as negative control wells. […] The IC50 value of cell proliferation inhibition was used to evaluate the inhibitory effect of the compound on the Wnt pathway and the toxic effect on normal cells (Table 2).

In assay [5] the test system is Colo205. The assay is described as follows: Proliferation inhibition, Wnt mutant cell line Colo205. Particulars: Homo sapiens, COLO 205; Colo205, Wnt pathway-dependent, 96 hours; read-out: Antiproliferative IC50 Colo205. In kind it is cell-based.
Text: as §3, §4

In assay [6] the test system is DU4475. In words: Proliferation inhibition, Wnt mutant cell line DU4475. In kind it is cell-based. As to conditions: Homo sapiens, DU-4475; DU4475, Wnt pathway-dependent, 96 hours; read-out: Antiproliferative IC50 DU4475.
Text: as §3, §4

Some results are limits rather than exact numbers.

The IC50 is the concentration at which inhibition is half-maximal. Take `COC[C@@]1(C)C(=O)N2CCCc3nc(NCc4ccc(Oc5ccc(C(F)(F)F)nc5)nc4)nc(c32)N1C` [179 (W375)]: the IC50 is 23 nM in assay [1], 45 nM in assay [2], 11 nM in assay [3] and > 10000 nM in assay [4].
On to `COc1nc(C(F)(F)F)ccc1Oc1ccc(CNc2nc3c4c(n2)N(C)[C@@](C)(CO)C(=O)N4CCC3)cn1` [232 (W418)], for which the IC50 is 5.5 nM in assay [1], < 0.5 nM in assay [3], > 10000 nM in assay [4] and 4 nM in assay [5].
With `[2H]C([2H])([2H])N1c2nc(NCc3ccc(Oc4cc(C(F)(F)F)nn4CC)nc3)nc3c2N(CCC3)C(=O)[C@@H]1COC` [201 (W360)], the IC50 in assay [1] was 6 nM; in assay [2], 51 nM; in assay [3], 14 nM; in assay [4], > 10000 nM; in assay [5], 3.6 nM.
Consider `[2H]C([2H])([2H])OC[C@@]1(C)C(=O)N2CCCc3nc(NCc4ccc(Oc5cnc(C(F)(F)F)nc5)nc4)nc(c32)N1C([2H])([2H])[2H]` [181 (W396)], for which the IC50 is 18 nM in assay [1]; 25 nM in assay [2]; 81 nM in assay [3]; > 10000 nM in assay [4]; 11.9 nM in assay [5].
Take `C[C@H]1C(=O)N2CCCc3nc(NCc4cnn(Cc5cc(C(F)(F)F)nn5C5CC5)c4)nc(c32)N1C` [230 (W415)]: the figures for the IC50 in assay [3], in assay [4] and in assay [5] were 50.8 nM, > 10000 nM and 42 nM, respectively.
Take `COCC[C@H]1C(=O)N2CCCc3nc(NCc4ccc(Oc5ccc(C(F)(F)F)nc5)nc4)nc(c32)N1C` [214 (W392)]: the IC50 in assay [2] was 82 nM; in assay [3] it was 9.6 nM; in assay [4] it was > 10000 nM; in assay [5] it was 34 nM.
Consider `CN1c2nc(NCc3ccc(Oc4ccc(C(F)(F)F)nc4)nc3)nc3c2N(CCC3)C(=O)C1CC(F)(F)F` (stereo not drawn) [189 (W306)], for which the IC50 in assay [1] is 17 nM; in assay [3], 3.5 nM; in assay [4] it was > 10000 nM; in assay [5] it was 8.5 nM.
In the case of `[2H]C([2H])([2H])N1c2nc(NCc3ccc(Oc4ccc(C(F)(F)F)nc4)nc3)nc3c2N(CCC3)C(=O)C1CC(F)(F)F` (stereo not drawn) [195 (W323)], the IC50 in assay [1] is 22 nM; in assay [2] it was 19 nM; in assay [3], 4 nM; in assay [4], > 10000 nM; in assay [5] it was 2.1 nM.
The corresponding values for `COC[C@@]1(C)C(=O)N2CCCc3nc(NCc4ccc(Oc5cnc(C(F)(F)F)nc5)nc4)nc(c32)N1C` [180 (W386)] are 23 nM, 82 nM, 40 nM, > 10000 nM and 14.6 nM.
The matching figures for `CN1c2nc(NCc3ccc(Oc4cnc(C(F)(F)F)nc4)nc3)nc3c2N(CCC3)C(=O)[C@@H]1C(C)(C)C` [160 (W362)]: 3 nM, 48 nM, 3.5 nM, 7150 nM and < 0.5 nM.
As for `CC(C)N1c2nc(NCc3ccc(Oc4cnc(C(F)(F)F)nc4)nc3)nc3c2N(CCC3)C(=O)[C@@H]1C` [170 (W368)], the IC50 in assay [1] was 17 nM; in assay [2] it was 94 nM; in assay [3], 31 nM; in assay [4] it was > 10000 nM; in assay [5], 7 nM.
In the case of `COc1nc(C(F)(F)F)ccc1Oc1ccc(CNc2nc3c4c(n2)N(C)[C@@H](C)C(=O)N4CCC3)cn1` [231 (W417)], the IC50 in assay [1] was < 0.5 nM; in assay [3], < 0.5 nM; in assay [4], > 10000 nM; in assay [5], 1.6 nM.
In the case of `CCn1nc(C(F)(F)F)cc1Oc1ccc(CNc2nc3c4c(n2)N(C)[C@@H](C)C(=O)N4CCC3)cn1` [152 (W336)], the IC50 was 4 nM in assay [1]; 36 nM in assay [2]; 4.4 nM in assay [3]; > 10000 nM in assay [4]; 2.7 nM in assay [5].
In the case of `CN1c2nc(NCc3ccc(Oc4cc(C(F)(F)F)nn4C4CCOC4)nc3)nc3c2N(CCC3)C(=O)[C@]1(C)CO` (stereo partly drawn) [234 (W420)], the values for the 50% inhibitory concentration (IC50) in assay [3], in assay [4] and in assay [5] were 66.2 nM, > 10000 nM and 51 nM, respectively.
On to `Cc1cc(CNc2nc3c4c(n2)N(C)[C@@H](C)C(=O)N4CCC3)cnc1Oc1ccc(C(F)(F)F)nc1` [103 (W195)], for which the IC50 was 36 nM in assay [1]; 68 nM in assay [3]; 11 nM in assay [6]; > 10000 nM in assay [4]; 19 nM in assay [5].
With `[2H]C([2H])([2H])OC[C@@]1(C)C(=O)N2CCCc3nc(NCc4ccc(Oc5ccc(C(F)(F)F)nc5)nc4)nc(c32)N1C([2H])([2H])[2H]` [182 (W395)], the half-inhibitory concentration (IC50) in assay [1] was 7 nM; in assay [3], 24 nM; in assay [4], > 10000 nM; in assay [5], 10.9 nM.
The matching figures for `CN1c2nc(NCc3ccc(Oc4cnc(C(F)(F)F)nc4)nc3)nc3c2N(CCC3)C(=O)C1CC(F)(F)F` (stereo not drawn) [198 (W307)]: 17 nM, 2.3 nM, > 10000 nM and 8.8 nM.
For `C[C@H]1C(=O)N2CCCc3nc(NCc4cnc(Oc5ccc(C(F)(F)F)nc5)c(C#N)c4)nc(c32)N1C` [238 (W426)], the IC50 in assay [1] was 27.3 nM; in assay [3] it was 25.8 nM; in assay [4], > 10000 nM; in assay [5] it was 24.6 nM.
